Experimental data from ChEMBL document CHEMBL1201862, “PubChem BioAssay data set” (2004).
The source made the active and inactive calls.

How the values were obtained:
[1] = target: T1, Dual specificity protein phosphatase 3 (Homo sapiens, UniProt P51452); test: VHR1 phosphatase inhibitors, primary screen, biochemical, absorbance, uHTS (AID 1654)
[2] = target: T2, RNA-binding protein pos-1 (Caenorhabditis elegans, UniProt G5EF15); test: disruptors of C. elegans POS-1 RNA interaction – biochemical, fluorescence polarization, dose response (AID 1964);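 further: purified POS-1 fused to maltose binding protein made in E. coli; potency of compounds blocking POS-1 binding to fluorescent RNA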
T2 sequence (G5EF15 whole entry): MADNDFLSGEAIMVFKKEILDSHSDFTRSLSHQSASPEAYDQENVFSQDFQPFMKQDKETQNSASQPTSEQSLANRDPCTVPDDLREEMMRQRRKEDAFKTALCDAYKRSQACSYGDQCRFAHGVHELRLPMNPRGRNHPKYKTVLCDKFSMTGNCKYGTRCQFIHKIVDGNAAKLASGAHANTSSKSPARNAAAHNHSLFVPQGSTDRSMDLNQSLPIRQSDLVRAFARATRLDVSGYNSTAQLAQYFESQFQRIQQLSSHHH

[3] = target: T3, Zinc finger protein mex-5 (Caenorhabditis elegans, UniProt Q9XUB2); test: potency of MEX-5 RNA-binding blockers – biochemical, C. elegans, fluorescence polarization, dose response (AID 1960)
T3 sequence (Q9XUB2 whole entry): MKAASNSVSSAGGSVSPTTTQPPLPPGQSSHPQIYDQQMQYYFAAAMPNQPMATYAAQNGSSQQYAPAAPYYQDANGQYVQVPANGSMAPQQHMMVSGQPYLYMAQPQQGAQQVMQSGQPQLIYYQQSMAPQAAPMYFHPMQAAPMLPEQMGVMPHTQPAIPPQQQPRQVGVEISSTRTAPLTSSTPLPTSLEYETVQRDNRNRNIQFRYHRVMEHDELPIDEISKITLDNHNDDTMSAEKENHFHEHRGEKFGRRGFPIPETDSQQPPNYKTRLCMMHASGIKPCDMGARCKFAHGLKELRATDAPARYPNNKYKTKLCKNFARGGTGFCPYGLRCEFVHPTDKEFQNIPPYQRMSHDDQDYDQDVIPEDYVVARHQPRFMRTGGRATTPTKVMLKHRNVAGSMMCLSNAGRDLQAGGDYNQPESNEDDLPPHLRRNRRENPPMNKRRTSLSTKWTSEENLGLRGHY

[4] = target: T1, Dual specificity protein phosphatase 3; test: VHR1 phosphatase inhibitors, biochemical (AID 1878)
[5] = target: T4, Dual specificity protein phosphatase 6 (Rattus norvegicus, UniProt Q64346); test: inhibition of rat DUSP6 enzyme activity – biochemical, in vitro, primary screen (AID 425)
T4 sequence (Q64346 whole entry): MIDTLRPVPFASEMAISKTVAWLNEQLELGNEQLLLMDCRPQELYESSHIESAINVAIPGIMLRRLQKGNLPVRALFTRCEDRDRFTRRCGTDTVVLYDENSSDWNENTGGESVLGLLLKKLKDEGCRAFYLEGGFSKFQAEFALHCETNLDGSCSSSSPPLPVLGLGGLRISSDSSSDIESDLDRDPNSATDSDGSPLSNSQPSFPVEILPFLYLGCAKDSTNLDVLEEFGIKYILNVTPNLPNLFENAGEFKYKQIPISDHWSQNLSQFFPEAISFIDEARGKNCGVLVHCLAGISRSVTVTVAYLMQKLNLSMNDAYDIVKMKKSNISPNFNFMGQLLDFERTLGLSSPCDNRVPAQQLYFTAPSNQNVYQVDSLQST

[6] = target: T5, Carboxy-terminal domain RNA polymerase II polypeptide A small phosphatase 1 (Homo sapiens, UniProt Q9GZU7); test: CTDSP1 inhibitors, concentration-response, biochemical, absorbance readout, ultra-high-throughput screen actives (AID 540297); type: functional
T5 sequence (Q9GZU7 whole entry): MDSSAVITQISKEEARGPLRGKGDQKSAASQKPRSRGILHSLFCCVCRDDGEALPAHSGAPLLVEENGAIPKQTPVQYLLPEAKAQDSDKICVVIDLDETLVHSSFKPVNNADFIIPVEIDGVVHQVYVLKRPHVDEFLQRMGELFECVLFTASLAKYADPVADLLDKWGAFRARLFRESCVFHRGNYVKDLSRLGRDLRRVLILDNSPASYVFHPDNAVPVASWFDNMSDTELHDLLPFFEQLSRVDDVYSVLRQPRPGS

Mu-type opioid receptor [7] = target: T6, Mu-type opioid receptor (Homo sapiens, UniProt P35372); test: mu opioid receptor activators, image-based, SAR follow-up (AID 2352); type: functional
T6 sequence (P35372 whole entry): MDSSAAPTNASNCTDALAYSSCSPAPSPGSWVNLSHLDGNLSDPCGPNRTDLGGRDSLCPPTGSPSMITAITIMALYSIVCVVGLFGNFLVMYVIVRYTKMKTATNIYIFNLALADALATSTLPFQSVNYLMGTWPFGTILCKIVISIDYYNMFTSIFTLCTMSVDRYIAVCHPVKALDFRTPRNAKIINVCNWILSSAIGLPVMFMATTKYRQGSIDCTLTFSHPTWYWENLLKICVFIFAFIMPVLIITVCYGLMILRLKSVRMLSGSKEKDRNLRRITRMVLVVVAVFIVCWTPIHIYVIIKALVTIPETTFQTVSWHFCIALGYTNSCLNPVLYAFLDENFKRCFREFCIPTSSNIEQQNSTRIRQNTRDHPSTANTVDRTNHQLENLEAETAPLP

[8] = target: T7, Delta-type opioid receptor (Homo sapiens, UniProt P41143); test: DOR agonists, SAR follow-up, image-based (AID 2370); type: functional
T7 sequence (P41143 whole entry): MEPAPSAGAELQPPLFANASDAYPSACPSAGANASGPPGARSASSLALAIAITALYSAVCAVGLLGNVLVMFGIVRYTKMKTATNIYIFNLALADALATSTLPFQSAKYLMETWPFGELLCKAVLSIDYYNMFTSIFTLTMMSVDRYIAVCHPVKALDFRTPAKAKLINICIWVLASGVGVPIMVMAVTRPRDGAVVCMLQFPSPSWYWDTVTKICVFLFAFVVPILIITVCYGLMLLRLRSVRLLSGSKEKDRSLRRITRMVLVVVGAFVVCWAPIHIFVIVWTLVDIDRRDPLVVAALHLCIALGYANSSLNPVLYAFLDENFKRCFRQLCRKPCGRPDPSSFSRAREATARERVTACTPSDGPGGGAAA

[9] = target: T8, Kappa-type opioid receptor (Homo sapiens, UniProt P41145); test: kappa opioid receptor blockers, image-based, SAR follow-up (AID 2348); type: functional
T8 sequence (P41145 whole entry): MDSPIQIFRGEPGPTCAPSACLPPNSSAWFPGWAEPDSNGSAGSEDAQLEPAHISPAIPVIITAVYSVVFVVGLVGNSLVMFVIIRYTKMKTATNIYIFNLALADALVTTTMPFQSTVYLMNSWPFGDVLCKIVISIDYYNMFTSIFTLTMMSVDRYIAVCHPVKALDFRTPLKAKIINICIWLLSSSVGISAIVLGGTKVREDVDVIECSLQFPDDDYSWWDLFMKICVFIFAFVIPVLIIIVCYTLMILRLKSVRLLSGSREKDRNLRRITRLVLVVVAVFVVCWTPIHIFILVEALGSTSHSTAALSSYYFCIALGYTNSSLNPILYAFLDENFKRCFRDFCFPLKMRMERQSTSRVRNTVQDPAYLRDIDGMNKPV

Mu-type opioid receptor [10] = target: T6, Mu-type opioid receptor; test: mu opioid receptor blockers – image-based, SAR follow-up (AID 2420); type: functional;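 further: compounds added before stimulation of receptor with agonist DAMGO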
[11] = target: T8, Kappa-type opioid receptor; test: kappa opioid receptor activation potency – imaging, image-based, SAR follow-up (AID 2359); type: functional
[12] = target: T7, Delta-type opioid receptor; test: delta opioid receptor blockers – image-based, SAR follow-up (AID 2357); type: functional
[13] = target: T8, Kappa-type opioid receptor; test: kappa opioid receptor blockers, cell-based, luminescence, beta-arrestin, SAR follow-up (AID 2285); type: functional

T1 sequence (P51452 whole entry, the tested form may be a part): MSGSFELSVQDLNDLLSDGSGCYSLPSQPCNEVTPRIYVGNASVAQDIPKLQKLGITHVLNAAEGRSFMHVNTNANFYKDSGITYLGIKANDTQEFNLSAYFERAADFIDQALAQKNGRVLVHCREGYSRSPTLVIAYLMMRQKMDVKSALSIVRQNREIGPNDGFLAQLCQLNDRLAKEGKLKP

Row | Structure (SMILES) | IC50 [1] | EC50 [2] | EC50 [3] | IC50 [4] | IC50 [5] | IC50 [6] | EC50 (Mu-type opioid receptor [7]) | EC50 [8] | IC50 [9] | IC50 (Mu-type opioid receptor [10]) | EC50 [11] | IC50 [12] | IC50 [13]
1 | Cc1ccc(NC(=O)CN2C(=O)S/C(=C\c3cccn3-c3cccc(C(=O)O)c3)C2=O)cc1C | 6.14 µM (active) | > 300 µM (not active) | > 300 µM (not active) | 4.36 µM (active) | 17.2 µM (active) | 3.28 µM (active) | – | – | – | – | – | – | –
2 | CC(=O)c1ccc(S(=O)(=O)NCc2ccc(C(=O)N(C)CC(=O)Nc3cccc(F)c3)cc2)cc1 | – | – | – | – | – | – | > 32 µM (inactive) | > 32 µM (inactive) | > 32 µM (inactive) | > 32 µM (inactive) | > 32 µM (inactive) | > 32 µM (inactive) | > 10 µM (inactive)
